pIC50: −log10 of the molar value. Where two headings read alike, the source gives them in different places. Values belong to the compound of their own block, whether it stands above or below them.
Key:
[1] = biological target: PIK3C2B (Homo sapiens, UniProt O00750); conditions: cited from earlier work; for pIC50: read-out: IC50 for PIK3C2B
[2] = biological target: PI3Kβ (Homo sapiens, UniProt P42338); conditions: literature value; read-out: IC50 for other PI3Ks: PI3Kβ; cited from earlier work
[3] = test system: 395 kinases; assay: KINOMEscan competitive binding profiling assay of 395 kinases (Ambit Biosciences); conditions: single concentration 10 μM
Source text: Initially, 3-{[(3S)-4-(6,6-dimethyl-4-oxo-4,5,6,7-tetrahydro[1,3]thiazolo[5,4-c]pyridin-2-yl)morpholin-3-yl]methyl}-N,N,1-trimethyl-1H-indole-5-carboxamide (referred as Test Compound here in Example 2) was screened against kinase targets representing diverse protein kinase family members for competitive binding using a commercially available profiling assay of 395 kinases (Ambit Biosciences, KINOMEscan), and the compound was found most likely to inhibit the kinase activity of PI3Ks compared to other kinases.

[4] = biological target: PIK3C2A (PI3K-C2 alpha) (Homo sapiens, UniProt O00443); assay: SelectScreen Adapta universal kinase assay, PIK3C2A; assay type: biochemical; conditions: [ATP] 10 uM; for inhibition at 0.00101 µM / inhibition at 0.00303 µM / inhibition at 0.0091 µM / inhibition at 0.0273 µM / inhibition at 0.082 µM / inhibition at 0.247 µM / inhibition at 0.741 µM / inhibition at 2.222 µM / inhibition at 6.667 µM / inhibition at 20 µM: PIK3C2A; for inhibition at 0.00101 µM: Test Compound 1.01 nM; for inhibition at 0.00303 µM: Test Compound 3.03 nM; for inhibition at 0.0091 µM: Test Compound 9.1 nM; for inhibition at 0.0273 µM: Test Compound 27.3 nM; for inhibition at 0.082 µM: Test Compound 82 nM; for inhibition at 0.247 µM: Test Compound 247 nM; for inhibition at 0.741 µM: Test Compound 741 nM; for inhibition at 2.222 µM: Test Compound 2222 nM; for inhibition at 6.667 µM: Test Compound 6667 nM; for inhibition at 20 µM: Test Compound 20000 nM
PIK3C2A (PI3K-C2 alpha), sequence (O00443 whole entry): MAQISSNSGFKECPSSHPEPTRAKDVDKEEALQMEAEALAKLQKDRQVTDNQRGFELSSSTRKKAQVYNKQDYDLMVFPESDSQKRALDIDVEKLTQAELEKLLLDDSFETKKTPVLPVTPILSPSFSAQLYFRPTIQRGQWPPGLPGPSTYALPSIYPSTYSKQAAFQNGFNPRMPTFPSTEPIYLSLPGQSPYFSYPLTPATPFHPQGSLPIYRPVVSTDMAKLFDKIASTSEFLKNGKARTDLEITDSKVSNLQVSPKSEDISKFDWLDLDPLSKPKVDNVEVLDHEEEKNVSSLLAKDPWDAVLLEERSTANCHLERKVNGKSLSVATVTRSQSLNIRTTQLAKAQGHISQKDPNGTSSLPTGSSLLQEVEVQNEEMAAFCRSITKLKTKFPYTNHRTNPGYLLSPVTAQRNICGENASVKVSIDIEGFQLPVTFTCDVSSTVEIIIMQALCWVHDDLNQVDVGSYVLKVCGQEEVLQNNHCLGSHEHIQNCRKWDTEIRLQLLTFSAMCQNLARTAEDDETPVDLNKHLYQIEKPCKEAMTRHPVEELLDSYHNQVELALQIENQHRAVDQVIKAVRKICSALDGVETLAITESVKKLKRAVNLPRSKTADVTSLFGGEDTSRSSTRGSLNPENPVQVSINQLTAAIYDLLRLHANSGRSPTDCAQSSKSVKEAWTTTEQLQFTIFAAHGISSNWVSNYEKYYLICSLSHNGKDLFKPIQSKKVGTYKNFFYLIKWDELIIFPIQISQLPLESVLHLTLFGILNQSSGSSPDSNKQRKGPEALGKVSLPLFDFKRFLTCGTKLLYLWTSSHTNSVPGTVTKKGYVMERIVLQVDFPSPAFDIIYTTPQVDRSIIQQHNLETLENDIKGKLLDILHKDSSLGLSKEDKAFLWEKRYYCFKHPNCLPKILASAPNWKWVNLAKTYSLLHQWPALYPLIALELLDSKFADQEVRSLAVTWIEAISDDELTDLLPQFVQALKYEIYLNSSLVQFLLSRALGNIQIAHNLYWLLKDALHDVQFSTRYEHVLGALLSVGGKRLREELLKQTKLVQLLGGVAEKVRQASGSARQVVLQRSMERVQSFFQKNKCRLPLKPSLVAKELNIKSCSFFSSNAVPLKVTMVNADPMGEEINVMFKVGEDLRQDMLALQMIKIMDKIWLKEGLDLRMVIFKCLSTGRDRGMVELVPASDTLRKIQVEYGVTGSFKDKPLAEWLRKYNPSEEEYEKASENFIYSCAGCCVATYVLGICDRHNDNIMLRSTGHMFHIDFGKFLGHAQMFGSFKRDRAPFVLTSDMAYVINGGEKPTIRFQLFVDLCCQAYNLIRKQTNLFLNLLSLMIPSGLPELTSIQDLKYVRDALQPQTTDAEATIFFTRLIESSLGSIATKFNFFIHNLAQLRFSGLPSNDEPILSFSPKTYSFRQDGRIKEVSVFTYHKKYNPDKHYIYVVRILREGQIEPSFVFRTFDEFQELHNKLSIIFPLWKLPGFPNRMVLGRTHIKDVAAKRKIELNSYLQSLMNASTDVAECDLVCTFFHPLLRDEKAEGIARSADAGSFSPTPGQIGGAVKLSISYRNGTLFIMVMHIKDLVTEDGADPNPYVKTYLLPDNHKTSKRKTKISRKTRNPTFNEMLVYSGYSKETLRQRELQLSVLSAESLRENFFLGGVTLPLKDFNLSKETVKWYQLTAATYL
Method: (§1) Kinase activities of PIK3C2B (and PIK3C2A for comparison) were obtained using the SelectScreen™ Profiling Service (Invitrogen) based on Adapta™ universal kinase assay protocol and conditions (Invitrogen Corporation, Cat. No. PV5099).
(§2) Adapta™ universal kinase assay: The assay itself can be divided into two phases: a kinase reaction phase, and an ADP detection phase. In the kinase reaction phase, all components required for the kinase reaction are added to the well, and the reaction is allowed to incubate for 60 minutes. After the reaction, a detection solution consisting of a europium labeled anti-ADP antibody, an Alexa Fluor™ 647 labeled ADP tracer, and EDTA (to stop the kinase reaction) is added to the assay well. ADP formed by the kinase reaction (in the absence of an inhibitor) displaces the Alexa Fluor® 647 labeled ADP tracer from the antibody, resulting in a decrease in the TR-FRET signal. In the presence of an inhibitor, the amount of ADP formed by the kinase reaction is reduced, and the resulting intact antibody-tracer interaction results in a high TR-FRET signal. ADP formation is determined by calculating the emission ratio from the assay well.
(§3) The emission ratio is calculated by dividing the intensity of the tracer (acceptor) emission by the intensity of the Eu (donor) emission at 615 nm as shown in the equation below. Emission Ratio=AlexaFluor™647 Emission (665 nm)/Europium Emission (615 nm).
(§4) The Test Compound was screened in 1% DMSO (final solution). For 10-point titrations, 3-fold serial dilutions were conducted from the starting concentrations of 20,000 nM for PIK3C2A and 1,000 nM for PIK3C2B.
(§5) For PIK3C2A (PI3K-C2 alpha), the 2×PIK3C2A (PI3K-C2 alpha)/PI mixture was prepared in a Kinase Buffer including 00 mM HEPES pH 7.5, 200 mM NaCl, 0.06% CHAPS, 6 mM MgCl2, 2 mM EGTA. The final 10 μL Kinase Reaction has 8 ng PIK3C2A (PI3K-C2 alpha) and 100 μM PI in 57.5 mM HEPES pH 7.5, 100 mM NaCl, 0.03% CHAPS, 3 mM MgCl2, 1 mM EGTA. After the 1 hour Kinase Reaction incubation, 5 μL of Detection Mix was added.
(§6) All ATP Solutions were diluted to a 4× working concentration in water. ATP Km (apparent) was previously determined using a radiometric assay except when no substrate is available in which case an Adapta™ assay was conducted.
(§7) The Detection Mix was prepared in TR-FRET Dilution Buffer. The Detection mix consists of EDTA (30 mM), Eu-anti-ADP antibody (30 nM) and ADP tracer. The detection mix contains the EC60 concentration of tracer for 5-100 μM ATP.
(§8) Adapta™ assay protocol: 2.5 μL 4× Test Compound or 100 nL 100× plus 2.4 μL kinase buffer was dispensed onto white 384-well small volume polystyrene plate (Corning, Cat. No. 3674). Then 2.5 μL of 4×ATP Solution followed by 5 μL of 2× Substrate/Kinase Mixture were added. The final 10 μL Kinase Reaction has 8 ng PIK3C2B (PI3K-C2 beta) and 100 μM PI in 57.5 mM HEPES pH 7.5, 100 mM NaCl, 0.03% CHAPS, 3 mM MgCl2, 1 mM EGTA After 30 seconds plate shake and 2-minutes centrifugation at 1000×g for 2 minutes, Kinase Reaction incubation was performed at room temperature for 60 minutes.
(§9) After the Kinase Reaction incubation, 5 μL of Detection Mix was added. After 30 seconds plate shake and 2-minutes centrifugation at 1000×g for 2 minutes, Detection Mix equilibration incubation was performed at room temperature for 60 minutes.
(§10) Adapta™ data analysis: The fluorescent data obtained was analyzed using a data fitting program, XLfit (ID Business Solutions, Guildford, UK). IC50 values were derived by fitting a sigmoidal dose-response curve to a plot of assay readout over inhibitor concentration.

[5] = biological target: PIK3C2B (PI3K-C2 beta) (Homo sapiens, UniProt O00750); assay: SelectScreen Adapta universal kinase assay, PIK3C2B; assay type: biochemical; conditions: for inhibition at 51 pM / inhibition at 0.000153 µM / inhibition at 0.00046 µM / inhibition at 0.00137 µM / inhibition at 0.0041 µM / inhibition at 0.0123 µM / inhibition at 0.037 µM / inhibition at 0.111 µM / inhibition at 0.333 µM / inhibition at 1 µM: PIK3C2B; for inhibition at 51 pM: Test Compound 0.051 nM; for inhibition at 0.000153 µM: Test Compound 0.153 nM; for inhibition at 0.00046 µM: Test Compound 0.46 nM; for inhibition at 0.00137 µM: Test Compound 1.37 nM; for inhibition at 0.0041 µM: Test Compound 4.1 nM; for inhibition at 0.0123 µM: Test Compound 12.3 nM; for inhibition at 0.037 µM: Test Compound 37 nM; for inhibition at 0.111 µM: Test Compound 111 nM; for inhibition at 0.333 µM: Test Compound 333 nM; for inhibition at 1 µM: Test Compound 1000 nM
PIK3C2B (PI3K-C2 beta), sequence (O00750 whole entry): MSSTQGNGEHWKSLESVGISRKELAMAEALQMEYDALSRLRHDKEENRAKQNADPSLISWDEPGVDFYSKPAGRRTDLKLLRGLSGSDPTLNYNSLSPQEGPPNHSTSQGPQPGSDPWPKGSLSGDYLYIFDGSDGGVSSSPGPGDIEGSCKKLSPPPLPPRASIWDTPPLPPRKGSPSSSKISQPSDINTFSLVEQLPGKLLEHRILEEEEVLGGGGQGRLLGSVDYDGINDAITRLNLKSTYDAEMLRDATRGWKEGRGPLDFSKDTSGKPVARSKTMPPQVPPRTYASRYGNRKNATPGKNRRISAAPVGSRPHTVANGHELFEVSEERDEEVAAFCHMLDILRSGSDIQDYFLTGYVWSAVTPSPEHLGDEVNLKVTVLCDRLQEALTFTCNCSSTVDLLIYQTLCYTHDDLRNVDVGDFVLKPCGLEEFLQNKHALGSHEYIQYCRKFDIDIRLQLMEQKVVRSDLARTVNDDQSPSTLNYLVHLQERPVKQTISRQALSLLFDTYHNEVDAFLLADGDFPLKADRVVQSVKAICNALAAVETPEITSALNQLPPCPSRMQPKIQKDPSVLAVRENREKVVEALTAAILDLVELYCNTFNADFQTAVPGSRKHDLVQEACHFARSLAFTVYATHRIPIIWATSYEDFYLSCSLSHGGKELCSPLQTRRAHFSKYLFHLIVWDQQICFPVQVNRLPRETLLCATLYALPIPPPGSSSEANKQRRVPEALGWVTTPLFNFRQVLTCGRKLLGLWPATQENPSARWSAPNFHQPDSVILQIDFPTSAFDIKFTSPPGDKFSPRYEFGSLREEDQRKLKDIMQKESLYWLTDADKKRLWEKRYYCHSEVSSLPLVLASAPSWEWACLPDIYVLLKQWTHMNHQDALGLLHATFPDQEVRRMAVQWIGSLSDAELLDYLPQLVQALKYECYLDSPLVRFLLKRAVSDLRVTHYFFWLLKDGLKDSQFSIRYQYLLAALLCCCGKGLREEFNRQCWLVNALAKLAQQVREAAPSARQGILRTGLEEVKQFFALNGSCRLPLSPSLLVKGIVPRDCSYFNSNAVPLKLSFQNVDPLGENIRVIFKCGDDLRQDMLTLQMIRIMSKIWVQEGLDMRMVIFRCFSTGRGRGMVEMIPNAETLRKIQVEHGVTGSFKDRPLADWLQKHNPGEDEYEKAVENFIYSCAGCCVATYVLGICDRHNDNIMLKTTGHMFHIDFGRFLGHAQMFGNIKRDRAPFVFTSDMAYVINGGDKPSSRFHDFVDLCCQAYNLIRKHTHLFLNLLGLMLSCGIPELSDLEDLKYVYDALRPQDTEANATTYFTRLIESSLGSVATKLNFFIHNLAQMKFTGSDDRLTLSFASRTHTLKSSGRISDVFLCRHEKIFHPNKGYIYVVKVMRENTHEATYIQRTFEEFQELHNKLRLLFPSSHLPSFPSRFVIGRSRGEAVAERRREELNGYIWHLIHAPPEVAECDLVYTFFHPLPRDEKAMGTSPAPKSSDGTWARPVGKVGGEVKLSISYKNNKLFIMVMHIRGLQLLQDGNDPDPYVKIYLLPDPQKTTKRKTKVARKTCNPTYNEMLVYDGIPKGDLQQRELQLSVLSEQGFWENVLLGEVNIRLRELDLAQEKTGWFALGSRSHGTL
Method: as §1, §2, §3, §4
as §5, with “PIK3C2B” for “PIK3C2A”, “beta),” for “alpha),”, “2×PIK3C2B” for “2×PIK3C2A”, “beta)/PI” for “alpha)/PI”, “100” for “a Kinase Buffer including 00”, “beta)” for “alpha)”
as §6, §7, §8, §9, §10

[6] = [ATP] 10 uM, read-out: % Inhibition point 1
[7] = [ATP] 10 uM, read-out: % Inhibition point 2

PIK3C2B, sequence (O00750 whole entry): as above

Structure (SMILES): CC[C@H](Nc1ncnc2[nH]cnc12)c1nc2cccc(F)c2c(=O)n1-c1ccccc1
pIC50 [1]: 6.00

Structure (SMILES): Cc1c(Cn2c(C)nc(=O)c3sc(N4CCOCC4)nc32)cccc1C(F)(F)F
selectivity in favor of PI3Kβ (Class I) ([1]; PI3Kβ over PIK3C2B): 166-fold selectivity in favor of PI3Kβ (Class I) (Lin et al. ACS Med. Chem. Lett. 2012, 3, 524-529) | pIC50 ([1]; literature value): 6.00 | pIC50 [2]: 8.22

hits in kinase binding screen [3]: no hits other than PI3Ks | inhibition at 0.00101 µM ([4]; read-out: % Inhibition point 1): 25% | inhibition at 0.00101 µM ([4]; read-out: % Inhibition point 2): -12% | inhibition at 0.00303 µM ([4]; read-out: % Inhibition point 1): -24% | inhibition at 0.00303 µM ([4]; read-out: % Inhibition point 2): 3% | inhibition at 0.0091 µM ([4]; read-out: % Inhibition point 1): -3% | inhibition at 0.0091 µM ([4]; read-out: % Inhibition point 2): 16% | inhibition at 0.0273 µM ([4]; read-out: % Inhibition point 1): 13% | inhibition at 0.0273 µM ([4]; read-out: % Inhibition point 2): -4% | inhibition at 0.082 µM ([4]; read-out: % Inhibition point 1): 0% | inhibition at 0.082 µM ([4]; read-out: % Inhibition point 2): 11% | inhibition at 0.247 µM ([4]; read-out: % Inhibition point 1): 15% | inhibition at 0.247 µM ([4]; read-out: % Inhibition point 2): 6% | inhibition at 0.741 µM ([4]; read-out: % Inhibition point 1): 17% | inhibition at 0.741 µM ([4]; read-out: % Inhibition point 2): 30% | inhibition at 2.222 µM ([4]; read-out: % Inhibition point 1): 46% | inhibition at 2.222 µM ([4]; read-out: % Inhibition point 2): 36% | inhibition at 6.667 µM ([4]; read-out: % Inhibition point 1): 55% | inhibition at 6.667 µM ([4]; read-out: % Inhibition point 2): 46% | inhibition at 20 µM ([4]; read-out: % Inhibition point 1): 81% | inhibition at 20 µM ([4]; read-out: % Inhibition point 2): 78% | pIC50 [4]: 5.37 | selectivity over C2A (Class II isoform) ([5]; PIK3C2B vs PIK3C2A IC50): 449-fold selectivity over | inhibition at 51 pM [5, 6]: 16% | inhibition at 51 pM [5, 7]: 17% | inhibition at 0.000153 µM [5, 6]: -3% | inhibition at 0.000153 µM [5, 7]: 8% | inhibition at 0.00046 µM [5, 6]: 10% | inhibition at 0.00046 µM [5, 7]: 21% | inhibition at 0.00137 µM [5, 6]: 21% | inhibition at 0.00137 µM [5, 7]: 33% | inhibition at 0.0041 µM [5, 6]: 58% | inhibition at 0.0041 µM [5, 7]: 27% | inhibition at 0.0123 µM [5, 6]: 61% | inhibition at 0.0123 µM [5, 7]: 49% | inhibition at 0.037 µM [5, 6]: 74% | inhibition at 0.037 µM [5, 7]: 82% | inhibition at 0.111 µM [5, 6]: 92% | inhibition at 0.111 µM [5, 7]: 90% | inhibition at 0.333 µM [5, 6]: 94% | inhibition at 0.333 µM [5, 7]: 93% | inhibition at 1 µM [5, 6]: 93% | inhibition at 1 µM [5, 7]: 95% | pIC50 ([5]; [ATP] 10 uM): 8.02
Structure (SMILES): CN(C)C(=O)c1ccc2c(c1)c(C[C@H]1COCCN1c1nc3c(s1)C(=O)NC(C)(C)C3)cn2C [Test Compound, 3-{[(3S)-4-(6,6-dimethyl-4-oxo-4,5,6,7-tetrahydro[1,3]thiazolo[5,4-c]pyridin-2-yl)morpholin-3-yl]methyl}-N,N,1-trimethyl-1H-indole-5-carboxamide]

— patent US20220202824A1, “Methods for Treating Centronuclear Myopathy” (Stemline Therapeutics, Inc., priority 2018, published 2022)
